Laboratory results reported in patent US11213027B2, “Combined administration of a penetration agent and a sulfur containing compound to plants” (THE STATE OF ISRAEL, MINISTRY OF AGRICULTURE & RURAL …, priority 2016, dated 2022).

What was measured:
[1] = system: cv. Early Sweet vines; assay: Bud break on whole vines, greenhouse in Argaman, Jordan Valley; format: in vivo, Vitis vinifera; settings: Example 21, FIGS. 23A, 23B; 6% DADS alone (DADS 6% control); natural bud break about 25-45%
[2] = system: grapevine buds (cuttings, whole vine); settings: cited from earlier work
[3] = system: corms, tubers and apple buds; settings: cited from earlier work
[4] = system: Vitis vinifera cv. Early Sweet single-node cuttings; assay: Bud break on grapevine single-node cuttings in growth chamber; format: in vivo
[5] = system: cv. Early Sweet vines; assay: Bud break on whole vines in a vineyard, Jordan Valley (spur pruning, hot winter); format: in vivo, Vitis vinifera; settings: Example 2, FIG. 2, negative control Triton, positive control 5% HC
[6] = system: berries of cv. Early Sweet vines; assay: TSS (sugar) level of berries of treated vines; format: in vivo, Vitis vinifera; settings: Example 3, FIG. 4; 6% DADS with 2% Armobreak®; Brix meter; versus control and HC
[7] = system: whole vines in vineyards; assay: Overall bud break in vineyards, summary over the examples; format: in vivo, grapevine; settings: spur pruned vineyard in region with higher chilling (FIG. 19, Example 17)

SMILES: C=CCSSCC=C [DADS, diallyl disulfide]
- bud break [1]: results within the range of the natural bud break
- bud break enhancing effect ([2]; applied to the whole vine, rather than to cuttings): very limited and inferior to the known HC
- grapevine bud break enhancement among garlic volatile compounds ([2]; volatile compounds containing sulfur and allyl groups): particularly effective
- bud break [3]: enhanced bud break of corms, tubers and apple buds
- bud break ([4]; Example 1, FIG. 1, 1% DADS sprayed with 0.02% Triton X-100, compared with 0.1%, 5% and 10% DADS): best result
- bud break ([4]; Example 1, FIG. 1, 5% DADS sprayed with 0.02% Triton X-100, control 0.02% Triton X-100 only, 22° C., monitored to day 28): toxic and actually inhibit bud break
- bud break ([4]; Example 1, FIG. 1, 10% DADS sprayed with 0.02% Triton X-100, control 0.02% Triton X-100 only, monitored to day 28): toxic and actually inhibit bud break
- bud break ([5]; 2% DADS with 0.02% Triton X-100): no effect
- bud break ([5]; 4% DADS with 0.02% Triton X-100): slight enhancement in bud break in comparison to the negative control
- TSS levels of the berries (ripening) [6]: increase the total soluble solids (TSS) level of the berries in comparison to the control

SMILES: C=CCSCC=C [DAS, Diallyl Sulfide]
- bud break ([4]; Example 5, FIG. 7, higher concentrations of DAS (0.1%, 1%, 5% tested) with 2% Armobreak®, control 2% Armobreak®): may reduce bud breaking
- bud break ([4]; Example 5, FIG. 7, relatively low concentrations of DAS (0.1%, 1%, 5% tested) with 2% Armobreak®, control 2% Armobreak®): enhance bud breaking in grapevine cuttings

SMILES: N#CN [HC, hydrogen cyanamide]
- bud break [7]: a milder effect or no effect
